Article PMC10992144, “Construction of fatty acid derivatives from rubber seed oil as α-glucosidase inhibitors based on rubber seed oil” (Bioresources and Bioprocessing, 2022)
Read-outs that look alike come from different tables or passages of the source.

Tests used:
[1] = target: T1, α-Glucosidase from recombinant yeast (Saccharomyces cerevisiae, UniProt P53341); assay: biochemical; assay type: biochemical; conditions: for Inhibitory score: 1/IC50, Table 4, S4
T1 construct: purchased Shanghai yuanye Bio-Technology Co. Ltd; host or cells: recombinant yeast
Procedure: Fatty acids and their derivates were diluted in 0.1 M, pH = 6.9 phosphate buffer with 0.5% (v/v) DMSO as cosolvent, to prepare […] sample solutions. 50 μL sample solution and 100 μL 0.5 U α-glucosidase (prepared in the same phosphate buffer) were added into 1.5-mL plastic tubes, incubated at 37 °C, 10 min. Then, 50 μL 5 mM α-PNPG (prepared in the same buffer) was added into the plastic tube, incubated for another 10 min at 37 °C. At the end, 1 M Na2CO3 was added to terminate the reaction.
The Inhibitory score measures the inhibitory intensity of each sample on α-glucosidase, calculated by 1/IC50. Data were subjected to the one-way ANOVA analysis by SPSS 23.0, shown as mean ± SD (n = 3).

[2] = system: α-glucosidase; conditions: result in words; ref Paul et al. ([2010]); cited from earlier work
[3] = 0.1 M phosphate buffer pH 6.9, 0.5% DMSO, 37 °C, α-PNPG, mean ± SD (n = 3), read-out: IC50

T1 sequence (P53341 whole entry): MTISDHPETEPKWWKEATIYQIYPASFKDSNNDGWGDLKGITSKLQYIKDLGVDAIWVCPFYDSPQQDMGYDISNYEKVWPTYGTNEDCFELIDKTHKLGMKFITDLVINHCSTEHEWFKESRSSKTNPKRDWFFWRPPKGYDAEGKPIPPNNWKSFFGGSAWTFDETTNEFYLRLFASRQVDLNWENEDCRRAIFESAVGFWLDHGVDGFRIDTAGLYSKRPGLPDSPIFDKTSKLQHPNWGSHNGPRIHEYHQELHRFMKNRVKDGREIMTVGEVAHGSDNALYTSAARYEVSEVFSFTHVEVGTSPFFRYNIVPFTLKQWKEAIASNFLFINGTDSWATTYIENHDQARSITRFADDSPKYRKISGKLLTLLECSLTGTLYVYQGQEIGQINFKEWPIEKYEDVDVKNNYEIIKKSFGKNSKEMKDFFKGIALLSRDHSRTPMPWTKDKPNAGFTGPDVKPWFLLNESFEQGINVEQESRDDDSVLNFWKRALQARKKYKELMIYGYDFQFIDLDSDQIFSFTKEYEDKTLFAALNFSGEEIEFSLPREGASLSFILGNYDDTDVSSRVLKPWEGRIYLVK

Row | SMILES | IC50 [1, 3] [nM] | Inhibitory score [1] | other results
1 | CCCCCCCCCCCC(=O)O [C12:0, lauric acid] | 135000 ± 6430 |  | 
2 | CCCCCCCCCC(=O)O [C10:0, capric acid] | 114000 ± 2370 |  | 
3 | CC/C=C\C/C=C\C/C=C\CCCCCCCC(=O)O [C18:3, α-linolenic acid] |  |  | IC50 [1]: 540 ± 10 nM
4 | CCCCCCCCCCCCCCCC(=O)O [C16:0, palmitic acid] | 13970 ± 10 |  | 
5 | CCCCCCCCC(O)/C=C/CCCCCCC(=O)O (stereo not shown) [10-hydroxy-8 (E)-octadecenoic acid] |  |  | inhibition of α-glucosidase [2]: useful inhibitor
6 | CCCCC/C=C\C/C=C\CCCCCCCC(=O)O [C18:2, linoleic acid] |  |  | IC50 [1]: 600 ± 10 nM
7 | CCCCC/C=C\CC(O)CCCCCCCCC(=O)O (stereo not drawn) [10-HOA, 10-hydroxy-cis-12-octadecenoic acid] |  | 2.58 | IC50 [1]: 390 ± 10 nM
8 | CCCCCCCC/C=C\CCCCCCCC(=O)OCCCCC [Pentyl, amyl oleate] | 3210 ± 170 | 0.31 | 
9 | CCCCCCCC/C=C\CCCCCCCC(=O)OCCCC [Butyl, butyl oleate] | 2340 ± 110 | 0.43 | 
10 | CCCCCCCC/C=C\CCCCCCCC(=O)O [cis-C18:1, Oleic acid] | 810 ± 40 |  | Inhibitory score ([1]; listed as OA): 1.23
11 | CCCCCCCCC(O)CCCCCCCCC(=O)O (stereo not shown) [10-HSA, 10-hydroxystearic acid] | 1710 ± 20 | 0.58 | 
12 | CCCCCCCC/C=C\CCCCCCCC(=O)OCCCCCC [Hexyl, hexyl oleate] | 4160 ± 210 | 0.24 | 
13 | CCCCCCCC/C=C\CCCCCCCC(=O)OCCC [Propyl, propyl oleate] | 1750 ± 40 | 0.57 | 
14 | CCCCCCCC/C=C\CCCCCCCC(=O)OCCCCCCCC [Octyl, octyl oleate] | 3250 ± 80 | 0.31 | 
15 | CCCCCCCCCCCCCC(=O)O [C14:0, myristic acid] | 56200 ± 2810 |  | 
16 | CCCCCCCC/C=C\CCCCCCCC(=O)OC(C)C [Isopropyl, isopropyl oleate] | 600 ± 10 | 1.67 | 
